Values of other authors in patent publication US20070027116A1, “Therapeutic phosphonate derivatives” (priority 2003, published 2007).

Settings: after oral or intravenous administration; background statement

- drug cleared by glucuronidation and excreted in the urine: over 90%
Compound: COc1c(C)c2c(c(O)c1C/C=C(\C)CCC(=O)OCCN1CCOCC1)C(=O)OC2 [Mycophenolate mofetil]
